Here are results for four molecules from publication PMC5564600 (Oncotarget, 2017).

What all share (test): biochemical
Holding throughout (type): binding

Test [1] concerns the target T1, panel of 442 kinases (Homo sapiens, UniProt P42345).
T1 construct: purchased Ambit Biosciences (scanMAXX KINOMEscan)
The settings on record: kinase MTOR; for remaining activity at 1 µM: read-out: % of control at 1 µM.

Test [2] has as its target T2, panel of 442 kinases (Homo sapiens, UniProt P49137).
T2 construct: purchased Ambit Biosciences (scanMAXX KINOMEscan)
Particulars: kinase MAPKAPK2; for remaining activity at 1 µM: read-out: % of control at 1 µM.

Test [3] deals with T3, panel of 442 kinases (Homo sapiens, UniProt O75914).
T3 construct: purchased Ambit Biosciences (scanMAXX KINOMEscan)
T3 sequence (O75914 whole entry): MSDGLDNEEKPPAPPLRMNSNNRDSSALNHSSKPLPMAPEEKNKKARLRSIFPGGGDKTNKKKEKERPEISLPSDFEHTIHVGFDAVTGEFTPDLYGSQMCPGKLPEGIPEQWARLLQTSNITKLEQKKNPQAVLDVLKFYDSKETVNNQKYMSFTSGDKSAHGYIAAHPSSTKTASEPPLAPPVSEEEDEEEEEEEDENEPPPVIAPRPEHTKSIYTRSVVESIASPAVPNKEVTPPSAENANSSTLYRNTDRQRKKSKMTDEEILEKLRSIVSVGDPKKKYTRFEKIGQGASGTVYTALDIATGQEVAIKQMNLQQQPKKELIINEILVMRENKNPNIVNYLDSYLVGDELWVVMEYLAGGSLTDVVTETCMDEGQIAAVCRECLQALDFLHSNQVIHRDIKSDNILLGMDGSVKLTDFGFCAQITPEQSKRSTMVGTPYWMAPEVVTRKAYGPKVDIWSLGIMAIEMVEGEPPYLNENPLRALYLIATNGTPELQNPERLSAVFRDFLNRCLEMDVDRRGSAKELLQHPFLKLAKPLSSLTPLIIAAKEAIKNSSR
Particulars: kinase PAK3; for remaining activity at 1 µM: read-out: % of control at 1 µM.

The target of test [4] is T4, panel of 442 kinases (Homo sapiens, UniProt Q9NYL2).
T4 construct: purchased Ambit Biosciences (scanMAXX KINOMEscan)
The settings on record: kinase ZAK; for remaining activity at 1 µM: read-out: ZAK (% of control at 1 µM).

For test [5], the target named is T5, panel of 442 kinases (Homo sapiens, UniProt Q9Y4K4).
T5 construct: purchased Ambit Biosciences (scanMAXX KINOMEscan)
T5 sequence (Q9Y4K4 whole entry): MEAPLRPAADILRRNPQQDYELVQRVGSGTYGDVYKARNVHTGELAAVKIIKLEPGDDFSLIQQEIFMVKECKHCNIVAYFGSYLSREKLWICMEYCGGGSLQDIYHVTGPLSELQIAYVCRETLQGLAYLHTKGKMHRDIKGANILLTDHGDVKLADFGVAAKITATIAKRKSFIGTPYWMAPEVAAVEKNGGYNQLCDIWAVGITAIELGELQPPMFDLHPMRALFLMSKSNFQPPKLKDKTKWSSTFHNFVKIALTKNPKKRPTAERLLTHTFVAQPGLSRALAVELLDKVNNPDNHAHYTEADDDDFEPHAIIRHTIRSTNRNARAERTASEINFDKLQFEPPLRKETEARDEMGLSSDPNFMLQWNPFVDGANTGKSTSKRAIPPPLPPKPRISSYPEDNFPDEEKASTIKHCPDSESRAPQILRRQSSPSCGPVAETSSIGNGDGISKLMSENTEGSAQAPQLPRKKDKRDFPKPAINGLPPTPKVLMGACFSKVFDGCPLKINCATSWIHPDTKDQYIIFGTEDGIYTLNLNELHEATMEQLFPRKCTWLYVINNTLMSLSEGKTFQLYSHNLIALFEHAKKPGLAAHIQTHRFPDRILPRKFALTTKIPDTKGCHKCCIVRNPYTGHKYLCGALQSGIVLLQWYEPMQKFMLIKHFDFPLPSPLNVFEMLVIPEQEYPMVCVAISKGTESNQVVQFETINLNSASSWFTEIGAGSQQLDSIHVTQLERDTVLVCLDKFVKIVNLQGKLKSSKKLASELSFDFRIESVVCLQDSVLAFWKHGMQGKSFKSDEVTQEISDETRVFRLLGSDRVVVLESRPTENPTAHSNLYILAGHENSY
The settings on record: kinase MAP4K5; for remaining activity at 1 µM: read-out: % of control at 1 µM.

Test [6] has as its target T6, panel of 442 kinases (Homo sapiens, UniProt Q8IYT8).
T6 construct: purchased Ambit Biosciences (scanMAXX KINOMEscan)
T6 sequence (Q8IYT8 1-1036): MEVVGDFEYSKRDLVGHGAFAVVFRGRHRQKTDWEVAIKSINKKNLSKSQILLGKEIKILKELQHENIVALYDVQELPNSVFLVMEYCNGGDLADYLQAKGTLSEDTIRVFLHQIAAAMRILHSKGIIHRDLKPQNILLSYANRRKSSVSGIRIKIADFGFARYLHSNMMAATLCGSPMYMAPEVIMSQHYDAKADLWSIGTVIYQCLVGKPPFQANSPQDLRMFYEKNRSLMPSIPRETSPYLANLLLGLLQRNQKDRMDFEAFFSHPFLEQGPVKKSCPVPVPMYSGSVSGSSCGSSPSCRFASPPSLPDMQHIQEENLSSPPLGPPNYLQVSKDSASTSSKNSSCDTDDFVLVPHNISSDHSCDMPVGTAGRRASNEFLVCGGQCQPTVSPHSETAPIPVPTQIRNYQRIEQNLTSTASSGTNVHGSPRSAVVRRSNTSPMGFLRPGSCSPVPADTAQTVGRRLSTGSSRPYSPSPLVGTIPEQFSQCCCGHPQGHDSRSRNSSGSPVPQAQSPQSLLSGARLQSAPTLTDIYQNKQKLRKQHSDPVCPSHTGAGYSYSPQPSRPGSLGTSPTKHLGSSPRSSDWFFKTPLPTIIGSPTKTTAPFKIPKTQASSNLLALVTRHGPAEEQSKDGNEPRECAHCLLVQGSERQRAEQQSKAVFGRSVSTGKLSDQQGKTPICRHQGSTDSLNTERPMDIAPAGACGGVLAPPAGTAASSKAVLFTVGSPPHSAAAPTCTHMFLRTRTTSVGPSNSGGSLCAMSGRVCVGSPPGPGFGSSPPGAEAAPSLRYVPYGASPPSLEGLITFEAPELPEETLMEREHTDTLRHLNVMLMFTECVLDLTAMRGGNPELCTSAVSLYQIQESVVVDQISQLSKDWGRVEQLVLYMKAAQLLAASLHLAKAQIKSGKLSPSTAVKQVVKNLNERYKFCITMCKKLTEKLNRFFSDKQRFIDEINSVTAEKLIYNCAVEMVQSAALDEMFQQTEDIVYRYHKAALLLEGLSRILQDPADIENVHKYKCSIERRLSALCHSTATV
The settings on record: kinase ULK2; for remaining activity at 1 µM: read-out: ULK2 (% of control at 1 µM).

Test [7] concerns the target T7, panel of 442 kinases (Homo sapiens, UniProt Q86V86).
T7 construct: purchased Ambit Biosciences (scanMAXX KINOMEscan)
The settings on record: kinase PIM3; for remaining activity at 1 µM: read-out: % of control at 1 µM.

Test [8] deals with T8, panel of 442 kinases (Homo sapiens, UniProt Q86Z02).
T8 construct: purchased Ambit Biosciences (scanMAXX KINOMEscan)
The settings on record: kinase HIPK1; for remaining activity at 1 µM: read-out: % of control at 1 µM.

In test [9] the target is T9, panel of 442 kinases (Homo sapiens, UniProt Q08345).
T9 construct: purchased Ambit Biosciences (scanMAXX KINOMEscan)
Particulars: DDR1; for remaining activity at 1 µM: read-out: % of control at 1 µM.

Test [10] deals with T10, panel of 442 kinases (Homo sapiens, UniProt Q9Y2H9).
T10 construct: purchased Ambit Biosciences (scanMAXX KINOMEscan)
The settings on record: kinase MAST1; for remaining activity at 1 µM: read-out: % of control at 1 µM.

For test [11], the target named is T11, panel of 442 kinases (Homo sapiens, UniProt Q99759).
T11 construct: purchased Ambit Biosciences (scanMAXX KINOMEscan)
T11 sequence (Q99759 1-626): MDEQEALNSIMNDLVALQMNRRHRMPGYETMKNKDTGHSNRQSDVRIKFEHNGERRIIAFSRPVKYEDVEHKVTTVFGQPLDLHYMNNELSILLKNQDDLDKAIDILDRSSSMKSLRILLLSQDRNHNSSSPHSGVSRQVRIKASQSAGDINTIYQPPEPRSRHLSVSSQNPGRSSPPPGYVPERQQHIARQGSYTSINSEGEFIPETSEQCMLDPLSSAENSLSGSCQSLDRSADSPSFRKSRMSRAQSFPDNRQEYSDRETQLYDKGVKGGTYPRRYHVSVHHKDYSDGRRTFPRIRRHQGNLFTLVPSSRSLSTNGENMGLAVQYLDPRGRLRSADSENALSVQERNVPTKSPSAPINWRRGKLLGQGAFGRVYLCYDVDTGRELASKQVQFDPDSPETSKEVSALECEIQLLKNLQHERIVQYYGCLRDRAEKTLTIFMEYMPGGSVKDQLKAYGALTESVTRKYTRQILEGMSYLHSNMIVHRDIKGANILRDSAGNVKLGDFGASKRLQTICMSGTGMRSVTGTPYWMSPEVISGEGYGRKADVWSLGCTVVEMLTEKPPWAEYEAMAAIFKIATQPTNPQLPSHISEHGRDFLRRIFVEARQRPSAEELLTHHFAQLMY
Particulars: kinase MAP3K3; for remaining activity at 1 µM: read-out: % of control at 1 µM.

For test [12], the target named is T12, panel of 442 kinases (Homo sapiens, UniProt P22607).
T12 construct: purchased Ambit Biosciences (scanMAXX KINOMEscan)
T12 sequence (P22607 23-806): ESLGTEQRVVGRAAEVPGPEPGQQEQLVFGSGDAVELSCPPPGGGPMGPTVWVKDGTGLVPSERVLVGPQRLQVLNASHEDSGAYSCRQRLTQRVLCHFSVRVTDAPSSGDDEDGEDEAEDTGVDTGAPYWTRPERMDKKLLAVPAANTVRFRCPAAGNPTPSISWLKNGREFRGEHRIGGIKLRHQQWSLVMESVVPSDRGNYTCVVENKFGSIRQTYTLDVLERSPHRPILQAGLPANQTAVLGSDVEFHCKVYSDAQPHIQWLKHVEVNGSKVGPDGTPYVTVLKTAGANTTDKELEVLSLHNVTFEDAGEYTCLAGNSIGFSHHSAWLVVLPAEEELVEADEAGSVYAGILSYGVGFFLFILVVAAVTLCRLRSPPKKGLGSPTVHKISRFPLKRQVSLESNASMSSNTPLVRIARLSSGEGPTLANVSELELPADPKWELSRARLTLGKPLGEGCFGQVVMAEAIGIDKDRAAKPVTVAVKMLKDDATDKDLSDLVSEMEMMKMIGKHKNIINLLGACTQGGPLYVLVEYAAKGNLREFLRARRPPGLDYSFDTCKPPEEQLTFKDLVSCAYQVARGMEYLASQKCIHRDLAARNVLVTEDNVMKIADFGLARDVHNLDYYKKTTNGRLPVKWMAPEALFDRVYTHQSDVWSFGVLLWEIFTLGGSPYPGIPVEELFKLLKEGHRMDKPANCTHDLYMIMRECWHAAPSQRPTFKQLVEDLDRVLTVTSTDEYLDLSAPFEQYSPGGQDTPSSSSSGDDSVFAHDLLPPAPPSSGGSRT
Particulars: FGFR3; for remaining activity at 1 µM: read-out: % of control at 1 µM.

In test [13] the target is T13, panel of 442 kinases (Homo sapiens, UniProt P78362).
T13 construct: purchased Ambit Biosciences (scanMAXX KINOMEscan)
T13 sequence (P78362 whole entry): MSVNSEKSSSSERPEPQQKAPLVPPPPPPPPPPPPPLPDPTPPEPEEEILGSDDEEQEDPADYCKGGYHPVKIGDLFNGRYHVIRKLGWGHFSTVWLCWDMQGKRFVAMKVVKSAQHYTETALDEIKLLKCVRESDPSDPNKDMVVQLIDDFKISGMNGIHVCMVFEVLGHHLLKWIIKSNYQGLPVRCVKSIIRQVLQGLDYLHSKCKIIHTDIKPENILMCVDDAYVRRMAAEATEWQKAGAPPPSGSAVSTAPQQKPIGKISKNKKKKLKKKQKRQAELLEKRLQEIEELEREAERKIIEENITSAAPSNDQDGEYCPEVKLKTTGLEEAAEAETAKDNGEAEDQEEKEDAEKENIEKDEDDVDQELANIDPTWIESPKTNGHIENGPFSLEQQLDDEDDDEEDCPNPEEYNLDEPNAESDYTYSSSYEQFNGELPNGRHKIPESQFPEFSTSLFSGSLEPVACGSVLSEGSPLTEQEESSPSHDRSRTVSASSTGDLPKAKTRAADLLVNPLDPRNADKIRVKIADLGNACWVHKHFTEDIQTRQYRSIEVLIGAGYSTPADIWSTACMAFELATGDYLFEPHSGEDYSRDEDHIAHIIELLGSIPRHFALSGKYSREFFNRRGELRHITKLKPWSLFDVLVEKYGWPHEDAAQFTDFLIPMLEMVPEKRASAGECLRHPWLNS
The settings on record: kinase SRPK2; for remaining activity at 1 µM: read-out: SRPK2 (% of control at 1 µM).

Test [14] concerns the target T14, panel of 442 kinases (Homo sapiens, UniProt P00533).
T14 construct: purchased Ambit Biosciences (scanMAXX KINOMEscan)
Particulars: EGFR; for remaining activity at 1 µM: read-out: % of control at 1 µM.

Where [15] appears, read: 10 µM, read-out: % of control at 10 µM.

T2 sequence (P49137 whole entry): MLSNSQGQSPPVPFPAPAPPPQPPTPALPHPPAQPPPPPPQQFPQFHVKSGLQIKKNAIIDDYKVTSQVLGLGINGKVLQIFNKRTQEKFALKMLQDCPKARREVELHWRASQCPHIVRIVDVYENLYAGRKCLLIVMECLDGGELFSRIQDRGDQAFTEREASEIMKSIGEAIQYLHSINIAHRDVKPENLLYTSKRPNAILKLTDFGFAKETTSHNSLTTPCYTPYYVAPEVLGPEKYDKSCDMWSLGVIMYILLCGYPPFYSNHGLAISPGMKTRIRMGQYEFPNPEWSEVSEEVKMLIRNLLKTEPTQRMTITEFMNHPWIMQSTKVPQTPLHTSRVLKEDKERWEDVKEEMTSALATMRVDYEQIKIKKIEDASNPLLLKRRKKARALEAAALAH
T14 sequence (P00533 25-1210): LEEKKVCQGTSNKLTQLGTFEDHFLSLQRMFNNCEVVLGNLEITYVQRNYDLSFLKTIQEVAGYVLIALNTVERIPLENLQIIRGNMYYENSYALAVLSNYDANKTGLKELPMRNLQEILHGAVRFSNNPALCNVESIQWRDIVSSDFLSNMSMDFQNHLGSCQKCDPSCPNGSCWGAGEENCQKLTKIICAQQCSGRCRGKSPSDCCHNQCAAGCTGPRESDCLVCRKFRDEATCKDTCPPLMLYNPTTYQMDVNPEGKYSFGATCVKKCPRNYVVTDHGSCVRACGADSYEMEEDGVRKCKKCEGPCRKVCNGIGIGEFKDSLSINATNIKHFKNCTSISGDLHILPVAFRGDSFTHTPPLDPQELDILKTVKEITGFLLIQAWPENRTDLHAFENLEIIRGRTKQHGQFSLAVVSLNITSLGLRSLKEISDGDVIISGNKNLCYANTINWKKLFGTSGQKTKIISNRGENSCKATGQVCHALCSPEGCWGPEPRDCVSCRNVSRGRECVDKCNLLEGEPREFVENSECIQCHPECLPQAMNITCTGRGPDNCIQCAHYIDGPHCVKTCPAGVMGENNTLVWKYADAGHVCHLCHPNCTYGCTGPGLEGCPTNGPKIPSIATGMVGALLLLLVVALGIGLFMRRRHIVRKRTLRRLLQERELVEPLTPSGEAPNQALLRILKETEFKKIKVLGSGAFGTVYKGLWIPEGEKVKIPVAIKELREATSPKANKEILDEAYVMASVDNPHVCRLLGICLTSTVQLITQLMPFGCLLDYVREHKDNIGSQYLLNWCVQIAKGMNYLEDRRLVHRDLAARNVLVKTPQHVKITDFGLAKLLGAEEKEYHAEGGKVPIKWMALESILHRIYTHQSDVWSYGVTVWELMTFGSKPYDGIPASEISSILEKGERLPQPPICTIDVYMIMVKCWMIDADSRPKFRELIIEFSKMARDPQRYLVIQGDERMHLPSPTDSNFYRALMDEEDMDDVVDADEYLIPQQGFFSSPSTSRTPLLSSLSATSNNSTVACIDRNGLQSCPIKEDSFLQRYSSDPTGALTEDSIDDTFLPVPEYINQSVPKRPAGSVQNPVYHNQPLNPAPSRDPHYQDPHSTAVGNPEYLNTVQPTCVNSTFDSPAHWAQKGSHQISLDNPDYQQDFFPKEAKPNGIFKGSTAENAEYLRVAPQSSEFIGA

Regarding `COc1ncc(-c2ccc3nccc(-c4ccnnc4)c3c2)cc1NS(=O)(=O)c1ccc(F)cc1F` [Omipalisib], the remaining activity at 1 µM was found to be 0% at panel of 442 kinases [1]; 100% at panel of 442 kinases [2]; 100% at panel of 442 kinases [3]; 81% at panel of 442 kinases [4]; 100% at panel of 442 kinases [5]; 100% at panel of 442 kinases [6]. The remaining activity at 1 µM on panel of 442 kinases [7] was determined as 86%; at panel of 442 kinases [8] it was 99%; on panel of 442 kinases [9] it was 100%; at panel of 442 kinases [10], 100%; at panel of 442 kinases [11] it was 100%; at panel of 442 kinases [12], 87%. Moreover, the figures for the remaining activity at 1 µM on panel of 442 kinases [13] and at panel of 442 kinases [14] were 100% and 86%, respectively.
As for `Cn1c(=O)n(-c2ccc(C(C)(C)C#N)cc2)c2c3cc(-c4cnc5ccccc5c4)ccc3ncc21` [Dactolisib, 2-methyl-2-[4-(3-methyl-2-oxo-8-quinolin-3-yl-2,3-dihydroimidazo[4,5-c]quinolin-1-yl)-phenyl] propionitrile], the remaining activity at 1 µM amounted to 0% at panel of 442 kinases [1]; 92% on panel of 442 kinases [2]; 86% at panel of 442 kinases [3]; 55% on panel of 442 kinases [4]; 55% on panel of 442 kinases [5]; 93% at panel of 442 kinases [6]. Also, the remaining activity at 1 µM came to 100% at panel of 442 kinases [7]; 72% on panel of 442 kinases [8]; 100% at panel of 442 kinases [9]; 100% at panel of 442 kinases [10]; 81% at panel of 442 kinases [11]; 100% on panel of 442 kinases [12]. Besides, the remaining activity at 1 µM on panel of 442 kinases [13] came to 100%; at panel of 442 kinases [14], 80%.
With `Nc1cc(C(F)(F)F)c(-c2cc(N3CCOCC3)nc(N3CCOCC3)n2)cn1` [Buparlisib], the remaining activity at 1 µM amounted to 20% at panel of 442 kinases [1]; 100% on panel of 442 kinases [2]; 89% on panel of 442 kinases [3]; 85% at panel of 442 kinases [4]; 96% at panel of 442 kinases [5]; 86% on panel of 442 kinases [6]. Also, the remaining activity at 1 µM came out at 100% at panel of 442 kinases [7]; 100% on panel of 442 kinases [8]; 100% at panel of 442 kinases [9]; 53% at panel of 442 kinases [10]; 98% at panel of 442 kinases [11]; 100% at panel of 442 kinases [12]. For the same molecule, the remaining activity at 1 µM was 78% on panel of 442 kinases [13] and 83% at panel of 442 kinases [14]. Besides, the remaining activity at 10 µM on panel of 442 kinases [1] (setting [15]) was determined as 4.6%; at panel of 442 kinases [2] (setting [15]), 100%; on panel of 442 kinases [3] (setting [15]) it was 100%; on panel of 442 kinases [4] (10 µM, read-out: ZAK (% of control at 10 µM)), 90%; on panel of 442 kinases [5] (setting [15]) it was 100%; on panel of 442 kinases [6] (10 µM, read-out: ULK2 (% of control at 10 µM)) it was 100%. In addition, the remaining activity at 10 µM on panel of 442 kinases [7] (setting [15]) was determined as 93%; at panel of 442 kinases [8] (setting [15]), 89%; at panel of 442 kinases [9] (setting [15]) it was 92%; at panel of 442 kinases [10] (setting [15]), 73%; on panel of 442 kinases [11] (setting [15]), 100%; on panel of 442 kinases [12] (setting [15]), 100%. In addition, the remaining activity at 10 µM on panel of 442 kinases [13] (10 µM, read-out: SRPK2 (% of control at 10 µM)) was found to be 100%; on panel of 442 kinases [14] (setting [15]), 100%.
On to `FC(F)c1nc2ccccc2n1-c1nc(N2CCOCC2)nc(N2CCOCC2)n1` [ZSTK474, 2-(difluoromethyl)-1-[4,6-di(4-morpholinyl)-1,3,5-triazin-2-yl]-1H-benzimidazole], for which the remaining activity at 1 µM on panel of 442 kinases [1] came to 0.75%; on panel of 442 kinases [2], 99%; on panel of 442 kinases [3], 73%; at panel of 442 kinases [4], 92%; at panel of 442 kinases [5], 99%; at panel of 442 kinases [6] it was 100%. Further, the remaining activity at 1 µM came to 95% on panel of 442 kinases [7]; 86% at panel of 442 kinases [8]; 95% at panel of 442 kinases [9]; 100% at panel of 442 kinases [10]; 74% at panel of 442 kinases [11]; 100% at panel of 442 kinases [12]. For the same molecule, the remaining activity at 1 µM at panel of 442 kinases [13] was determined as 100%; at panel of 442 kinases [14], 94%.
